In the NIST ThermoML archive (doi:10.1007/s10765-015-1922-3):
Numbers after ± are expanded uncertainties.

Assays:
[1] = Liquid; for mass density: 298.15 K, 101.33 kPa, Vibrating tube method; for Normal boiling temperature: Ebulliometric method (Recirculating still)
[2] = refractive index (Na D-line) (dimensionless); conditions: 298.15 K; 101.33 kPa; Liquid; Standard Abbe refractometry

Row | Compound | mass density [1] [kg/m3] | Normal boiling temperature [1] [°C] | refractive index [2]
1 | CCCO [propan-1-ol] | 799.51 ± 0.31 | 97.2 ± 0.2 | 1.38305 ± 0.00075
2 | c1ccccc1 [benzene] | 873.6 ± 0.16 | 80.01 ± 0.2 | 1.49692 ± 0.00073
3 | C1CCCCC1 [cyclohexane] | 773.7 ± 0.2 | 80.64 ± 0.2 | 1.4232 ± 0.00073
